From patent US8076285B2, “Lysobactin amides” (Aicuris GmbH & Co. KG, priority 2006, dated 2011)
Where two headings read alike, the source gives them in different places.

Legend:
[1] = amide bond, 28-membered ring
[2] = amide bond; 28-membered ring

## CC[C@H](C)[C@@H]1NC(=O)[C@@H](CCCNC(=N)N)NC(=O)[C@H](CC(C)C)NC(=O)[C@H]([C@H](O)C(C)C)NC(=O)[C@@H](NC(=O)[C@H](CC(C)C)NC(=O)[C@@H](CC(C)C)NC(=O)OCc2ccccc2)[C@@H](c2ccccc2)NC(=O)[C@H](CO)NC(=O)[C@H](CC(N)=O)NC(=O)CNC(=O)[C@H]([C@@H](C)O)NC1=O
[1]; from Z-dLeu-Leu-(3R)3-amino-Phe(free 3-NH2)-(3R)3-OH-Leu-Leu-dArg-Ile-Thr-Gly-Asn-Ser-OH, HATU/NMM, DMF, 25.0 °C
  ring closure, yield after HPLC: 88.3%

## CC[C@H](C)[C@@H]1NC(=O)[C@@H](CCCNC(=N)N)NC(=O)[C@H](CC(C)C)NC(=O)[C@H]([C@H](O)C(C)C)NC(=O)[C@@H](NC(=O)OCc2ccccc2)[C@@H](c2ccccc2)NC(=O)[C@H](CO)NC(=O)[C@H](Cc2ccccc2)NC(=O)CNC(=O)[C@H]([C@H](C)O)NC1=O
[1]; from Z-Phe((3R)-3-NH2)-Leu((3R)-3-OH)-Leu-dArg-Ile-aThr-Gly-Phe-Ser-OH?, HATU/NMM, DMF, 0.0 °C
  ring closure, yield after HPLC: 96%

## CC[C@H](C)[C@@H]1NC(=O)[C@@H](CCCNC(=N)N)NC(=O)[C@H](CC(C)C)NC(=O)[C@H]([C@H](O)C(C)C)NC(=O)[C@@H](NC(=O)OCc2ccccc2)[C@@H](c2ccccc2)NC(=O)[C@H](CO)NC(=O)[C@H]([C@H](O)C(N)=O)NC(=O)CNC(=O)[C@H]([C@H](C)O)NC1=O
[1]; from Z-(3R)-3-amino-Phe-(3R)-3-hydroxy-Leu-Leu-dArg-Ile-alloThr-Gly-(3S)-3-hydroxy-Asn-Ser-OH, HATU/NMM, DMF, 1.27 mM, 0.0 °C
  ring closure, yield after HPLC: 78.3%

## CC[C@H](C)[C@@H]1NC(=O)[C@@H](CCCNC(=O)OCc2ccccc2)NC(=O)[C@H](CC(C)C)NC(=O)[C@H]([C@H](O)C(C)C)NC(=O)[C@@H](NC(=O)[C@H](CC(C)(C)C)NC(=O)[C@@H](CC(C)(C)C)NC(=O)OCc2ccccc2)[C@@H](c2ccccc2)NC(=O)[C@H](CO)NC(=O)[C@H](CC(N)=O)NC(=O)CNC(=O)[C@H]([C@H](C)O)NC1=O
[1]; from Z-dAla(3-tBu)-Ala(3-tBu)-(3R)3-amino-Phe(free 3-NH2)-(3R)3-OH-Leu-Leu-dOrn(Z)-Ile-aThr-Gly-Asn-Ser-OH, HATU/NMM, DMF, 4.0 °C
  ring closure, yield after HPLC: 91.3%

## CC[C@H](C)[C@@H]1NC(=O)[C@@H](CCCNC(=N)N)NC(=O)[C@H](CC(C)C)NC(=O)[C@H]([C@H](O)C(C)C)NC(=O)[C@@H](NC(=O)[C@H](CC(C)(C)C)NC(=O)[C@@H](CC(C)(C)C)NC(=O)OCc2ccccc2)[C@@H](c2ccccc2)NC(=O)[C@H](CO)NC(=O)[C@H](CC(N)=O)NC(=O)CNC(=O)[C@H]([C@H](C)O)NC1=O
[1]; from Z-dAla(3-tBu)-Ala(3-tBu)-(3R)3-amino-Phe(free 3-NH2)-(3R)3-OH-Leu-Leu-dArg-Ile-aThr-Gly-Asn-Ser-OH, HATU/NMM, DMF, 1.14 mM, 4.0 °C
  ring closure, yield after HPLC: 80%

## CC[C@H](C)[C@@H]1NC(=O)[C@@H](CCCNC(=N)N)NC(=O)[C@H](CC(C)C)NC(=O)[C@H]([C@H](O)C(C)C)NC(=O)[C@@H](NC(=O)OCc2ccccc2)[C@@H](c2ccccc2)NC(=O)[C@H](CO)NC(=O)[C@H](CO)NC(=O)CNC(=O)[C@H]([C@H](C)O)NC1=O
[1]; from Z-Phe((3R)-3-NH2)-Leu((3R)-3-OH)-Leu-dArg-Ile-aThr-Gly-Ser-Ser-OH, HATU/NMM, DMF, 19.4 mM, 0.0 °C
  ring closure, yield after HPLC: 43%

## CC[C@H](C)[C@@H]1NC(=O)[C@@H](CCCNC(=N)N)NC(=O)[C@H](CC(C)C)NC(=O)[C@H]([C@H](O)C(C)C)NC(=O)[C@@H](NC(=O)OCc2ccccc2)[C@@H](c2ccc(N(C)C)cc2)NC(=O)[C@H](CO)NC(=O)[C@H]([C@H](O)C(N)=O)NC(=O)CNC(=O)[C@H]([C@H](C)O)NC1=O
[1]; from H-[N3-amine free, N2-Cbz-(3R)-3-amino-Phe(4-NMe2)]-[(3R)-3-OH-Leu]-Leu-dArg-Ile-aThr-Gly-[(3S)-3-OH-Asn]-Ser-OH, HATU/NMM, DMF, 9.3 mM
  ring closure, yield after HPLC: 52%

## [(3R)-N^2-(Benzyloxycarbonyl)-3-amino-L-phenylalanyl]-[(3R)-3-hydroxy-L-leucyl]-L-leucyl-D-arginyl-L-isoleucyl-L-seryl-glycyl-L-seryl-L-serine C^1.9-N^3.1-lactam trifluoroacetate
[2]
  ring closure, isolated yield: 81%

## CC[C@H](C)[C@@H]1NC(=O)[C@@H](CCCNC(=N)N)NC(=O)[C@H](CC(C)C)NC(=O)[C@H]([C@H](O)C(C)C)NC(=O)[C@@H](NC(=O)OCc2ccccc2)[C@@H](c2ccccc2)NC(=O)[C@H](CO)NC(=O)[C@H](Cc2cccnc2)NC(=O)CNC(=O)[C@H]([C@H](C)O)NC1=O
[1]; from Z-Phe((3R)-3-NH2)-Leu((3R)-3-OH)-Leu-dArg-Ile-aThr-Gly-Ala(3-pyridyl)-Ser-OH, HATU/NMM, DMF, 0.0 °C
  ring closure, yield after HPLC: 51%

## N^2.1-(Benzyloxycarbonyl)-[(3R)-3-amino-L-alanyl)]-[(3R)-3-hydroxy-L-leucyl]-L-leucyl-D-arginyl-L-isoleucyl-L-allothreonyl-glycyl-[(3S)-3-hydroxy-L-asparaginyl]-L-serine C^1.9-N^3.1-lactam hydrochloride
[1]; Et3N (Pfp ester), CHCl3, 0.11 mM, 3 steps
  ring closure, yield after HPLC: 15.9%

## [(3R)-N^2-(Benzyloxycarbonyl)-3-amino-L-phenylalanyl]-[(3R)-3-hydroxy-L-leucyl]-L-leucyl-D-arginyl-[3-trimethylsilyl-L-alanlyl]-L-allothreonyl-glycyl-L-seryl-L-serine C^1.9-N^3.1-lactam trifluoroacetate
[2]
  ring closure, isolated yield: 51%
